Source: article PMC9132415, “Identification of 1H-pyrazolo[3,4-b]pyridine derivatives as novel and potent TBK1 inhibitors: design, synthesis, biological evaluation, and molecular docking study” (Journal of Enzyme Inhibition and Medicinal Chemistry, 2022)
Where two headings read alike, the source gives them in different places.

Target: T1, TBK1 (Homo sapiens, UniProt Q9UHD2)
T1 sequence (Q9UHD2 1-729): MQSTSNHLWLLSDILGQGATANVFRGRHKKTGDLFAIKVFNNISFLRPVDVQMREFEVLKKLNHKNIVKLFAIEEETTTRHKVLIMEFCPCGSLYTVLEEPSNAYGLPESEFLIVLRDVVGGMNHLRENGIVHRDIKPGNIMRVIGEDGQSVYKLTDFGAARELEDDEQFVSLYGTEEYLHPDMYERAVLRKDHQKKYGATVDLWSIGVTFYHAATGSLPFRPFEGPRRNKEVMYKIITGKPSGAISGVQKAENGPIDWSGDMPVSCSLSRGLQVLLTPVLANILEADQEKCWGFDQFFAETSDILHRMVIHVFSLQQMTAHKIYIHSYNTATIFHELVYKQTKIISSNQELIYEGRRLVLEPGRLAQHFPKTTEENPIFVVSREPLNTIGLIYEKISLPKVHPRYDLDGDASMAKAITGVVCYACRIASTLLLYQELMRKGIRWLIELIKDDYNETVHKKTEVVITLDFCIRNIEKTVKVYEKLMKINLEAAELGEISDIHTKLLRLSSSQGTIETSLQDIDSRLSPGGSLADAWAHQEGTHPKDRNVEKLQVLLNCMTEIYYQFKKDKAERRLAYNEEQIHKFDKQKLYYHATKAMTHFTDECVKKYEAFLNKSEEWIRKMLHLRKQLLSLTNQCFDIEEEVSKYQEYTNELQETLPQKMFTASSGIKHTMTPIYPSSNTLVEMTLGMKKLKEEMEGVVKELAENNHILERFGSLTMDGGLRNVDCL
Assay: FRET-based Z'-LYTE TBK1 enzymatic assay
Format: biochemical
Design: purchased Thermo Scientific A31513
Conditions: for inhibition at 0.001 µM: compound at 1 nM, read-out: TBK1 inhibition (%) 1 nM; for IC50: mean of two separate experiments; for inhibition at 0.0001 µM: compound at 0.1 nM, read-out: TBK1 inhibition (%) 0.1 nM

[1] = compound at 10 nM, 100 µM ATP, read-out: TBK1 inhibition (%) 10 nM
[2] = compound at 100 nM, 100 µM ATP, read-out: TBK1 inhibition (%) 100 nM
[3] = compound at 1 μM, 100 µM ATP, read-out: TBK1 inhibition (%) 1 μM
[4] = read-out: TBK1 inhibition (%) 100 nM, compound at 100 nM, 100 µM ATP
[5] = read-out: TBK1 inhibition (%) 1 μM, compound at 1 μM, 100 µM ATP
[6] = read-out: TBK1 inhibition (%) 10 μM, compound at 10 μM, 100 µM ATP
[7] = compound at 10 μM, 100 µM ATP, read-out: TBK1 inhibition (%) 10 μM
[8] = read-out: TBK1 inhibition (%) 10 nM, compound at 10 nM, 100 µM ATP

Cc1nc2c(F)cc(-c3n[nH]c4ncc(-c5ccc(CN6CCN(C)CC6)cc5)cc34)cc2n1C(C)C [Compound 15x]
inhibition at 0.001 µM (100 µM ATP): 18.6%
inhibition at 0.01 µM [1]: 34.1%
inhibition at 0.1 µM [2]: 80.5%
inhibition at 1 µM [3]: 75.8%
IC50 (100 µM ATP): 22 nM

CN1CCN(Cc2ccc(-c3cnc4[nH]nc(-c5ccc6[nH]ccc6c5)c4c3)cc2)CC1 [Compound 15a]
inhibition at 0.1 µM [4]: 13.2%
inhibition at 1 µM [5]: 36.5%
inhibition at 10 µM [6]: 83%

CN1CCN(Cc2ccc(-c3cnc4[nH]cc(-c5ccc6[nH]ccc6c5)c4c3)cc2)CC1 [URMC-099, reference compound]
TBK1 inhibition (%) 10 μM (compound at 10 μM, 100 µM ATP): 75.3%
inhibition at 10 µM [6]: 75.4%

CC(C)n1cnc2ccc(-c3n[nH]c4ncc(-c5ccc(C(=O)N6CCN(C)CC6)cc5)cc34)cc21 [Compound 15g]
inhibition at 0.001 µM (100 µM ATP): 8.6%
inhibition at 0.01 µM [1]: 29.9%
inhibition at 0.1 µM [2]: 91.7%
inhibition at 1 µM [3]: 108%
inhibition at 10 µM [7]: 108%
IC50 (100 µM ATP): 26 nM

CC(C)n1cnc2ccc(-c3n[nH]c4ncc(-c5ccc(S(N)(=O)=O)cc5)cc34)cc21 [Compound 15i]
fold lower TBK1 IC50 than compound 15e (compared with 15e): ~10 times
inhibition at 0.001 µM (100 µM ATP): 47.3%
inhibition at 0.01 µM [1]: 62.3%
inhibition at 0.1 µM [2]: 75.4%
inhibition at 1 µM [3]: 105%
inhibition at 10 µM [7]: 111%
IC50 (100 µM ATP): 8.5 nM

CN1CCN(Cc2ccc(-c3cnc4[nH]nc(NCCCc5ccccc5)c4c3)cc2)CC1 [Compound 12d]
inhibition at 0.1 µM [4]: -5.6%
inhibition at 1 µM [5]: -5.8%
inhibition at 10 µM [6]: -4.7%

CC(C)n1c(C(F)(F)F)nc2c(F)cc(-c3n[nH]c4ncc(-c5cccc(S(N)(=O)=O)c5)cc34)cc21 [Compound 15aa]
inhibition at 0.01 µM [8]: 14.1%
inhibition at 0.1 µM [4]: 36.8%
inhibition at 1 µM [5]: 48.3%

COc1ccc(CCNc2n[nH]c3ncc(-c4ccc(CN5CCN(C)CC5)cc4)cc23)cc1 [Compound 12f]
inhibition at 0.1 µM [4]: -9.7%
inhibition at 1 µM [5]: -7.9%
inhibition at 10 µM [6]: -0.5%

CC(=O)Nc1cc(-c2cnc3[nH]nc(-c4ccc5ncn(C(C)C)c5c4)c3c2)ccn1 [Compound 15j]
inhibition at 0.001 µM (100 µM ATP): 14.2%
inhibition at 0.01 µM [1]: 31.5%
inhibition at 0.1 µM [2]: 67.1%
inhibition at 1 µM [3]: 104%
inhibition at 10 µM [7]: 103%
IC50 (100 µM ATP): 67.2 nM

CC(C)n1c(C(F)(F)F)nc2c(F)cc(-c3n[nH]c4ncc(-c5ccc(S(N)(=O)=O)cc5)cc34)cc21 [Compound 15w]
TBK1 inhibitory activity (in words): almost lost TBK1 activity
inhibition at 0.01 µM [8]: 10.7%
inhibition at 0.1 µM [4]: 27.1%

CN1CCN(Cc2ccc(-c3cnc4[nH]nc(-c5ccc(N)cc5)c4c3)cc2)CC1 [Compound 15c]
inhibition at 0.1 µM [4]: 38.3%
inhibition at 1 µM [5]: 47.8%
inhibition at 10 µM [6]: 86.8%

Cc1nc2c(F)cc(-c3n[nH]c4ncc(-c5ccc(S(N)(=O)=O)cc5)cc34)cc2n1C(C)C [Compound 15t]
fold increase of TBK1 activity compared with compound 15i (compared with 15i): 10 times
inhibition at 0.0001 µM (100 µM ATP): 43.1%
inhibition at 0.001 µM (100 µM ATP): 61.6%
inhibition at 0.01 µM [1]: 78%
inhibition at 0.1 µM [2]: 79.5%
inhibition at 1 µM [3]: 99.1%
IC50 (100 µM ATP): 0.8 nM

CN1CCN(Cc2ccc(-c3cnc4[nH]nc(NCCc5ccc(F)cc5)c4c3)cc2)CC1 [Compound 12e]
inhibition at 0.1 µM [4]: -1.4%
inhibition at 1 µM [5]: -2.4%
inhibition at 10 µM [6]: -5%

CN1CCN(Cc2ccc(-c3cnc4[nH]nc(NCCCN5CCOCC5)c4c3)cc2)CC1 [Compound 12h]
inhibition at 0.1 µM [4]: -7.8%
inhibition at 1 µM [5]: -4.3%
inhibition at 10 µM [6]: -5.2%

Cc1nc2c(F)cc(-c3n[nH]c4ncc(-c5ccc(S(N)(=O)=O)cc5)cc34)cc2o1 [Compound 15p]
inhibition at 0.01 µM [8]: 32%
inhibition at 0.1 µM [4]: 30.6%
inhibition at 1 µM [5]: 37.1%
inhibition at 10 µM [6]: 41.1%

CN1CCN(Cc2ccc(-c3cnc4[nH]nc(NCCCn5ccnc5)c4c3)cc2)CC1 [Compound 12i]
inhibition at 0.01 µM [8]: 16.2%
inhibition at 0.1 µM [4]: 15.2%
inhibition at 1 µM [5]: 19.9%
inhibition at 10 µM [6]: 7.1%

CN1CCN(Cc2ccc(-c3cnc4[nH]nc(-c5ccc6[nH]cnc6c5)c4c3)cc2)CC1 [Compound 15d]
inhibition at 0.01 µM [1]: 18%
inhibition at 0.1 µM [2]: 52.5%
inhibition at 1 µM [3]: 84.1%
inhibition at 10 µM [7]: 102%
IC50 (100 µM ATP): 131 nM

Cc1nc2cc(-c3n[nH]c4ncc(-c5ccc(S(N)(=O)=O)cc5)cc34)cc(F)c2o1 [Compound 15r]
inhibition at 0.01 µM [8]: -2.6%
inhibition at 0.1 µM [4]: 10.8%
inhibition at 1 µM [5]: 5.7%
inhibition at 10 µM [6]: 56.8%

CN1CCN(Cc2ccc(-c3cnc4[nH]nc(-c5cccc(N)c5)c4c3)cc2)CC1 [Compound 15b]
inhibition at 0.1 µM [4]: 11%
inhibition at 1 µM [5]: 14.3%
inhibition at 10 µM [6]: 47.9%

CN1CCN(Cc2ccc(-c3cnc4[nH]nc(NCc5ccc(Cl)cc5Cl)c4c3)cc2)CC1 [Compound 12c]
inhibition at 0.1 µM [4]: -30.1%
inhibition at 1 µM [5]: -6.7%
inhibition at 10 µM [6]: -2%

Cc1nc2c(F)cc(-c3n[nH]c4ncc(-c5ccc(S(N)(=O)=O)cc5)cc34)cc2n1C1CC1 [Compound 15v]
inhibition at 0.0001 µM (100 µM ATP): 37.7%
inhibition at 0.001 µM (100 µM ATP): 42.5%
inhibition at 0.01 µM [1]: 49.7%
inhibition at 0.1 µM [2]: 70.3%
inhibition at 1 µM [3]: 87.4%
IC50 (100 µM ATP): 31.2 nM

NS(=O)(=O)c1ccc(-c2cnc3[nH]nc(-c4ccc(N5CCOCC5)cc4)c3c2)cc1 [Compound 15m]
inhibition at 0.1 µM [4]: -8.9%
inhibition at 1 µM [5]: -6%
inhibition at 10 µM [6]: -11%

CC(C)n1cnc2ccc(-c3n[nH]c4ncc(-c5ccc(CN6CCN(C)CC6)cc5)cc34)cc21 [Compound 15e]
inhibition at 0.01 µM [1]: 14.3%
inhibition at 0.1 µM [2]: 62.8%
inhibition at 1 µM [3]: 104%
inhibition at 10 µM [7]: 108%
IC50 (100 µM ATP): 75.3 nM

Cc1nc2c(F)cc(-c3n[nH]c4ncc(-c5cccc(S(N)(=O)=O)c5)cc34)cc2n1C1CC1 [Compound 15z]
inhibition at 0.001 µM (100 µM ATP): 32.7%
inhibition at 0.01 µM [1]: 48.4%
inhibition at 0.1 µM [2]: 84.4%
inhibition at 1 µM [3]: 79.5%
IC50 (100 µM ATP): 24.4 nM

CN1CCN(Cc2ccc(-c3cnc4[nH]nc(-c5cccc6cnccc56)c4c3)cc2)CC1 [Compound 15f]
inhibition at 0.1 µM [2]: 28.7%
inhibition at 1 µM [3]: 81.4%
inhibition at 10 µM [7]: 101%
IC50 (100 µM ATP): 290 nM

CN1CCN(Cc2ccc(-c3cnc4[nH]nc(NCCc5ccccc5)c4c3)cc2)CC1 [Compound 12b]
inhibition at 0.1 µM [4]: 7.3%
inhibition at 1 µM [5]: 5.9%
inhibition at 10 µM [6]: 3.2%

NS(=O)(=O)c1ccc(-c2cnc3[nH]nc(-c4cc(F)c5cn[nH]c5c4)c3c2)cc1 [Compound 15q]
inhibition at 0.01 µM [8]: 4.5%
inhibition at 0.1 µM [4]: 12.7%
inhibition at 1 µM [5]: 25.5%
inhibition at 10 µM [6]: 83.9%

NS(=O)(=O)c1ccc(-c2cnc3[nH]nc(-c4cnn(CCN5CCOCC5)c4)c3c2)cc1 [Compound 15n]
inhibition at 0.1 µM [4]: -8.9%
inhibition at 1 µM [5]: -15%
inhibition at 10 µM [6]: -12.5%

Cc1nc2ccc(-c3n[nH]c4ncc(-c5ccc(S(N)(=O)=O)cc5)cc34)cc2n1C(C)C [Compound 15s]
inhibition at 0.001 µM (100 µM ATP): 45.5%
inhibition at 0.01 µM [1]: 68.6%
inhibition at 0.1 µM [2]: 76.9%
inhibition at 1 µM [3]: 97.2%
IC50 (100 µM ATP): 6.2 nM

CN1CCN(Cc2ccc(-c3cnc4[nH]nc(NCc5ccccc5)c4c3)cc2)CC1 [Compound 12a]
inhibition at 0.1 µM [4]: -14.5%
inhibition at 1 µM [5]: -13.6%
inhibition at 10 µM [6]: -8%

NS(=O)(=O)c1ccc(-c2cnc3[nH]nc(-c4cnn(CCO)c4)c3c2)cc1 [Compound 15o]
inhibition at 0.1 µM [4]: -2.7%
inhibition at 1 µM [5]: -7.4%
inhibition at 10 µM [6]: 23.3%

COC(=O)c1cccc(-c2cnc3[nH]nc(-c4ccc5ncn(C(C)C)c5c4)c3c2)c1 [Compound 15k]
inhibition at 0.01 µM [1]: 19.5%
inhibition at 0.1 µM [2]: 45%
inhibition at 1 µM [3]: 82.6%
inhibition at 10 µM [7]: 106%
IC50 (100 µM ATP): 288 nM

Cc1nc2c(F)cc(-c3c[nH]c4ncc(-c5ccc(S(N)(=O)=O)cc5)cc34)cc2n1C(C)C [Compound 15ab]
fold reduced activity against TBK1 compared to 15t (compared to 15t): 8 fold
inhibition at 0.0001 µM (100 µM ATP): 43.1%
inhibition at 0.001 µM (100 µM ATP): 60.1%
inhibition at 0.01 µM [1]: 70.9%
inhibition at 0.1 µM [2]: 72.9%
inhibition at 1 µM [3]: 90.3%
IC50 (100 µM ATP): 3.6 nM

CC(C)n1cnc2ccc(-c3n[nH]c4ncc(-c5ccc(C(N)=O)cc5)cc34)cc21 [Compound 15h]
inhibition at 0.001 µM (100 µM ATP): 24%
inhibition at 0.01 µM [1]: 29.1%
inhibition at 0.1 µM [2]: 75.6%
inhibition at 1 µM [3]: 104%
inhibition at 10 µM [7]: 103%
IC50 (100 µM ATP): 58.9 nM
